The source of these data is ChEMBL document CHEMBL1125808, “Studies on the macrocyclic part of the trichothecene satratoxin: partial synthesis and structure-activity relationship” (Bioorg Med Chem Lett, 1991).

For one experiment, the system named is Daudi. Put plainly: Concentration of compound to inhibit half of cell growth in malignant human lymphocytes: Daudi lymphoma cells. More on the design: unit not given here. Format: functional, cell-based.
The species entered for experiment [1] is Mus musculus. Nature of the experiment: Cytotoxicity was evaluated on mice spleen lymphocytes stimulated by Phaseolus Vulgaris Phytohemagglutininin (PHA) after 72 hours. Format: functional. More on the design: unit not given here.
The species entered for experiment [2] is Mus musculus. Put plainly: Cytotoxicity was evaluated on mice spleen lymphocytes stimulated by Phaseolus Vulgaris Phytohemagglutininin (PHA) after 48 hours. Format: functional. More on the design: unit not given here.
For experiment [3], the species on record is Mus musculus. Put plainly: Cytotoxicity of compound was evaluated on mice spleen lymphocytes stimulated by Phaseolus Vulgaris Phytohemagglutininin (PHA) after 48 hours. Format: functional.

With `CCOC(=O)/C=C/[C@H]1OCC/C(=C\COCc2ccccc2)[C@@H]1O[Si](C)(C)C(C)(C)C`, the IC50 in the experiment on Daudi came to 0.6; in the experiment listed under Mus musculus [1], 1.4; in the experiment listed under Mus musculus [2], 0.7.
The corresponding values for `COC(=O)CC(O)[C@H]1OCC/C(=C\COCc2ccccc2)C1O[Si](C)(C)C(C)(C)C` (stereo not given in full) are 10, 20 and 20.
Take `CCOC(=O)/C=C/[C@H]1OCC/C(=C\C(=O)OCC)[C@@H]1O[Si](C)(C)C(C)(C)C`: the IC50 is given as 9.3 with Daudi, 17.6 in the experiment listed under Mus musculus [1] and 8.8 M ml-1 in the experiment listed under Mus musculus [3].
Regarding `O=C1CC(O)[C@H]2OCC/C(=C\COCc3ccccc3)C2O1` (stereo not given in full), the IC50 in the experiment with Daudi is 3.5; in the experiment listed under Mus musculus [1], 13; in the experiment listed under Mus musculus [2], 8.8.
The corresponding values for `CCOC(=O)/C=C/C=C/[C@H]1OCC/C(=C\C(=O)OCC)[C@@H]1O[Si](C)(C)C(C)(C)C` are 2.2, 1.1 and 0.73.
